Test results: patent publication US12090157B2, “Non-invasive pet imaging of CDK4/6 activation in cancer” (New York University, priority 2020, dated 2024)
Several values for one entry are separate records, joined by “and”; a condition that tells them apart may be missing. Equal entries are not always repeated. Where two headings read alike, the source gives them in different places. Values belong to the molecule of their own block, whether it stands above or below them.

Key:
CDK4/6 = experiment: IC50 binding affinity, competitive ATP quantitative assay (CellTiter-Glo, MCF-7 cells); type: cell-based, human; settings: for binding affinity to CDK4/6: FIG. 2A legend
Procedure: (§1) IC50 values were determined using a competitive ATP quantitative assay. […]. MCF-7 cells were cultured at 37° C. for 4 h. Then, ^19F-CDKi or vehicle was added at different concentration and incubated at 37° C. for 96 h. Cell viability was then assessed using CellTiter-Glo® Luminescent Assay (Promega, Madison, WI), used accordingly to manufacturer's guidelines. Cell viability inhibition (%) was calculated according to the formula [1−(mean luminosity of treated sample/mean luminosity of vehicle control)]×100. IC50 for growth or viability inhibition was calculated using Graph Prism 8 (GraphPad Software Inc, La Jolla, CA). We used ^18F-CDKi and palbobiclib for competitive displacement studies. MCF-7 cells were seeded in a 12 wells plate (1×10^5 cells 24 h prior the experiment). The next day, a fixed concentration of ^18F-CDKi (50 nM) was co-incubated with linearly doubling concentrations of palbociclib (from 0 to 500 nM) at 37° C. for 2 h. Then, the cells were washed twice with PBS, lysed with 1N NaOH, and the activity (CPM) measured in a γ-counter for bound ^18F radioligand. The percentage of bound radioligand was finally plotted against palbociclib concentration. Competitive displacement curves were fitted using Graph Prism 8 (GraphPad Software Inc, La Jolla, CA).

MCF-7 cells [1] = experiment: In vitro cell-associated uptake of ^18F-CDKi; type: cell-based, human
Procedure: MCF-7 cells were seeded in a 6 well plates (5×10^6 cells 24 hours prior the experiment). The next day, ^18F-CDKi was added alone or together with a 50-fold excess Palbociclib and incubated at 37° C. for 1 h. After 1 h, cells were firstly washed three times with PBS, then lysed with 1N NaOH, and finally media and cells counted in a γ-counter. The percentage of bound/unbound radioligand at each time point was measured in triplicate and plotted as a function of time.

Blood half-life = type: in vivo, mouse; settings: mice, single bolus intravenous injection
Procedure: The blood half-life of ^18F-CDKi was calculated by measuring the activity of blood samples collected at different time points p.i. (5, 15, 30, 45, 60, 90 and 120 minutes). Female nude mice (n=3) were injected via lateral tail vein with ^18F-CDKi (and blood samples obtained by retro-orbital bleed using tared capillary tubes. Samples were weighed, and activity was measured by γ-counter. The blood half-life was calculated using Graph Prism 7 (GraphPad Software, La Jolla, CA) using a two-phase decay least squares fitting method and expressed as % ID/g.

In vitro stability = type: in vitro ADME; settings: after 4 h of incubation
[2] = Octanol/water partition coefficient; type: physicochemical; settings: 1-octanol / phosphate buffered saline pH 7.4
Procedure: The Chemical Hydrophobicity Indices (CHI) were measured using a previously developed procedure (Valkó, Journal Chromatogr A. 2004; 1037:299-310, Valkó et al., Anal Chem. 1997; 69:2022-2029. Briefly, reverse phase HPLC was used to measure the retention times of a set of standards with known CHI. A standard curve was then created to calculate the CHI of […] based on the HPLC retention time. The lipophilicity of the ^18F-CDKi was acquired by adding 0.09 mBq to a mixture of 0.5 mL of 1-octanol and 0.5 mL of 25 mM phosphate buffered saline (pH 7.4) and mixed for 5 minutes. Then, the mixture was centrifuged at 15.000 rpm for 5 minutes. 100 μL samples were obtained from organic and aqueous layers, and the radioactivity of the samples were measured in a WIZARD^2 automatic γ-counter. The experiment was performed in triplicate, and the resulting log Pow was calculated as the mean±SD.

MCF-7 xenografts = experiment: MicroPET/CT imaging and ex-vivo biodistribution in MCF-7 bearing mice; design: species or system mouse; settings: for kidney concentration / liver concentration / small intestines concentration: 2 h post injection
Procedure: Female athymic nude CrTac:NCr-Foxnlnu mice (n=35) were purchased from Taconic Laboratories (Hudson, NY). 20 mice received subcutaneous injections with 2×10^6 human MCF-7 cancer cells in Matrigel® (BD Biosciences, San Jose, CA) into each right shoulder and were allowed to grow for approximately two months until the tumors reached ˜10 mm in diameter. All mice were supplemented with 60 days 0.72 mg slow release estradiol pellets purchased from Innovative Research of America (IRA, Sarasota, FL) implanted in the left flank. Mice were anesthetized (isoflurane 1.5%, 2 L/min medical air) during tumor implantation and microPET imaging.
Twelve subcutaneous MCF-7 implanted athymic nude mice were divided in two groups (blocked and unblocked) and administered with ^18F-CDKi (˜7.4 mBq) via tail vein injection. Approximately 5 min prior to PET acquisition, mice were anesthetized by inhalation of a mixture of isoflurane (Baxter Healthcare, Deerfield, IL, USA; 2% isoflurane, 2 L/min medical air) and positioned on the scanner bed. Anesthesia was maintained using a 1% isoflurane/O2 mixture. PET data for each mouse was recorded and acquired at 30 min p.i and at 120 min p.i. Blocking studies were performed after a pre-injection of 50-fold excess palbociclib (8.4 nmol, 3.8 μg, 30 min before). The duration of the microPET/CT imaging sessions was 20 min each.
Biodistribution of ^18F-CDKi was performed in subcutaneous MCF-7 bearing athymic nude mice (n=8). Mice were divided (n=4/group) in blocked and unblocked (50-fold excess palbociclib, 30 minutes before) and administered with ^18F-CDKi via tail vein injection (1.85 mBq). At 120 minutes post injection of the radioligand, the mice were sacrificed and organs of interest were collected. Organs were weighed, and activity was measured with a WIZARD^2 automatic γ-counter (PerkinElmer, Boston, MA). The radiopharmaceutical uptake was expressed as a percentage of injected dose per gram (% ID/g) using the following formula: [(activity in the target organ/grams of tissue)/injected dose]×100%.

MCF-7 cells [3] = experiment: Competitive displacement of ^18F-CDKi by palbociclib in MCF-7 cells; type: cell-based, human; settings: 50 nM ^18F-CDKi, palbociclib 0 to 500 nM, 2 h, read-out: inhibition effect, competitive displacement of palbociclib
Procedure: as §1

[4] = first of two values joined by 'or'
[5] = second of two values joined by 'or'

IC50 (CDK4/6; FIG. 2A, read-out: targeting affinity to CDK4/6): ~13 nM
IC50 against both CDK4 and CDK6 kinases (CDK4/6; in words): single digit nanomolar
IC50 (CDK4/6; in words, similar to the parent compound palbociclib): nanomolar range
in vivo blood half-life t1/2(weighted) (Blood half-life): 7.03 min and 7 min
in vitro stability, parent compound intact (In vitro stability): more than 98%
octanol/water phase partition coefficient (log DO/W) [2]: 1.91±0.24
logD ([2]; read-out: octanol/water phase partition coefficient (log DO/W)): 1.91 ± 0.24
kidney concentration (MCF-7 xenografts; [4]): 7.99±0.7 % ID/g
liver concentration (MCF-7 xenografts; [4]): 6±0.5 % ID/g
small intestines concentration (MCF-7 xenografts; [4]): 9.6±2.7 % ID/g
kidney concentration (MCF-7 xenografts; [5]): 9.6±0.98 % ID/g
liver concentration (MCF-7 xenografts; [5]): 6.77±1.15 % ID/g
small intestines concentration (MCF-7 xenografts; [5]): 10±1.19 % ID/g
tumor-to-blood ratio (MCF-7 xenografts; MCF-7 bearing mice, 2 h p.i.): > 5
tumor-to-bone ratio (MCF-7 xenografts; MCF-7 bearing mice, 2 h p.i.): > 10
tumor-to-muscle ratio (MCF-7 xenografts; MCF-7 bearing mice, 2 h p.i.): > 15
tumor uptake after injection of palbociclib prior to the radiotracer (MCF-7 xenografts; MCF-7 bearing mice, in words): negligible
tumor uptake, blocked (MCF-7 xenografts; MCF-7 xenografts, 50-fold excess of cold palbociclib pre-injected): ~0.3 % ID/g
tumor uptake (MCF-7 xenografts; MCF-7 xenografts, ^18F-CDKi alone, 2 h p.i.): ~4 % ID/g
clearance route (MCF-7 xenografts; PET imaging and biodistribution, mice): hepatobiliary route
SMILES: CC(=O)c1c(C)c2cnc(Nc3ccc(N4CCN(C(=O)c5ccc([18F])cc5)CC4)cn3)nc2n(C2CCCC2)c1=O [^18F-CDKi]
binding affinity to CDK4/6 (CDK4/6; in words): nanomolar
cell uptake blocked by excess of cold, unlabeled palbociclib (MCF-7 cells [1]): > 98%
maximum intracellular concentration (MCF-7 cells [1]; 10 minutes post incubation): ~65%
tracer uptake when co-incubated with a molar excess of Palbociclib (MCF-7 cells [1]; blocked): < 5%

IC50 (MCF-7 cells [3]): ~18 nM
SMILES: CC(=O)c1c(C)c2cnc(Nc3ccc(N4CCN(C(=O)c5ccc(F)cc5)CC4)cn3)nc2n(C2CCCC2)c1=O [^19F-CDKi]
binding affinity to CDK4/6 (CDK4/6; in words): nanomolar
